Results on ten substances are retold here after US20200407712A1, “ARRAY-BASED CYCLIC PEPTIDE LIBRARIES” (HealthTell Inc., priority 2018, published 2020).

One assay deals with T1, human diaphorase (NQO1) (Homo sapiens, UniProt P15559).
T1 construct: purchased SigmaAldrich
In words: Alexa Fluor 555-diaphorase binding to linear and lactam constrained peptide microarrays. The note with it: 10.0 nM protein applied to the array; for Diaphorase Lactam, log 10 transformed median intensity: lactam constrained library peptide; for Diaphorase Linear, log 10 transformed median intensity: linear library peptide. From the text:
(§1) Diaphorase is NAD(P)H dehydrogenase (UniProtKB: P15559) encoded by the NQO1 gene. Diaphorase has utility as a model enzyme; for which peptide based synthetic affinity agents to diaphorase are required. A 3.3 million feature peptide array was used to identify potential binding partner peptides for diaphorase. Ferredoxin NADP+ Reductase (FNR) and Ferredoxin are included as counter screens for a specific application, while immunoglobulin depleted human serum (Non-Immunoglobulin Serum Components or NISC) was used as a complex mixture to control for generally sticky peptides.
Two wafers from the same synthesis batch were obtained where one wafer was prepared with the lactam chemistry and constrained into a cyclized form. The degree of cyclization was confirmed using the biotinylation assay described in Examples 9, 17, and 19.
(§2) Peptide arrays were prepared for protein binding by pretreating the arrays in PBST for 30 min at […]. Direct labeled diaphorase (Alexa Fluor™ 555), direct labeled FNR (Alexa Fluor™ 555) and biotinylated ferredoxin were applied to the arrays at 1.0 and 10.0 nM along with direct labeled NISC at 0.001 mg/mL for 1 hr at 37° C. Arrays were washed 3× with PBST and Streptavidin-Alexa Fluor™ 555 was applied to the biotinylated ferredoxin and streptavidin alone arrays. All other arrays received PBST and were incubated for 1 hr at 37° C. Arrays were washed with PBST and p53Ab1-Alexa Fluor™ 647 applied to all arrays to illuminate the edge fiducials for 10 min at 37° C. Following the final incubation arrays were washed in PBST and water, dried and imaged on the ImageXpress ([…]). Triplicate arrays were used for the subsequent analysis except for when rejection of an array was necessary due to the presence of artifacts. Data were analyzed using a custom R script.
Intensities plotted are the log 10 transformed median intensity from replicate arrays. Coloring of the points represents the density of features at that intensity using a gray-scale map. Light grey represents areas of low peptide numbers while black represents the intensity having the highest number of peptides. The diagonal line is equivalence line. […] CLUSTAL sequence alignment (FIG. 27B) of the sequences indicated similarities in amino acid composition. Highlighted amino acids are conserved in over 60% of the peptides for that position or are a chemically similar amino acid (ie: F and Y).
The sequences contain similar amino acid usage. Four peptides having the highest degree of cyclization in the quality control assay were identified and binding intensities compared to other library peptides having one or two amino acid substitutions as shown in FIG. 28. Substitutional analysis provides confidence in the array data by indicating which residues are important for binding. Dark grey boxes highlight indicate a residue conserved in more than 60% of the peptides. Light grey boxes highlight indicate chemically similar amino acids to the conserved residue. RFI is the intensity is the median replicate log 10 intensity for the 10.0 nM Diaphorase.

The test system of assay [1] is Ferredoxin NADP+ Reductase (FNR). In words: FNR counter screen on linear and lactam constrained peptide microarrays. Format: binding. The note with it: 10.0 nM protein applied to the array; for FNR Lactam, log 10 transformed median intensity: lactam constrained library peptide; for FNR Linear, log 10 transformed median intensity: linear library peptide.
Text: as §1, §2

Another assay deals with Ferredoxin. In words: Biotinylated ferredoxin counter screen on linear and lactam constrained peptide microarrays. The class given is binding. Conditions: 10.0 nM biotinylated protein, detected with Streptavidin-Alexa Fluor 555; for Ferredoxin Lactam, log 10 transformed median intensity: lactam constrained library peptide; for Ferredoxin Linear, log 10 transformed median intensity: linear library peptide.
Text: as §1, §2
For orientation: The purpose of a counterscreen is to sort out artefacts and off-target activity.

The subject of assay [2] is Non-Immunoglobulin Serum Components (NISC). In words: NISC counter screen on linear and lactam constrained peptide microarrays. Format: binding, human. The note with it: 0.001 mg/mL NISC applied to the array; for NISC Lactam, log 10 transformed median intensity: lactam constrained library peptide; for NISC Linear, log 10 transformed median intensity: linear library peptide.
Text: as §1, §2
Peptides were also selected based on the difference in log 10 transformed intensities between diaphorase and NISC as the counter screen agent (LFGdiaphorase minus LFGNISC). Intensities for 10.0 nM diaphorase and 0.001 mg/mL NISC are shown in FIG. 29A where intensities plotted are the log 10 transformed median intensity from replicate arrays. Coloring of the points represents the density of features at that intensity using a grey colorscale. Light grey represents areas of low peptide numbers while black represents the intensity having the highest number of peptides. The diagonal line is equivalence line. Selectivity vs NISC was not dependent on cyclization as diaphorase also bound the linear forms for some peptides (Table 4). Three peptides having the highest degree of cyclization in the quality control assay were identified and binding intensities compared to other library peptides having one or two amino acid substitutions (FIG. 30) Each CLUSTAL alignment contains the library peptides having a maximum of two substitutions to the parent peptide. Dark grey highlights indicate a residue conserved in more than 60% of the peptides. Light grey highlights indicate chemically similar amino acids to the conserved residue. The amino acid usage is indicated in the sequence logo above the alignment. Substitutional analysis provides confidence in the array data by indicating which residues are important for binding.

The target of a further assay is Streptavidin (Streptomyces avidinii, UniProt P22629). Description: Streptavidin-Alexa Fluor 555 alone on linear and lactam constrained peptide microarrays. The class given is binding. The note with it: for Streptavidin Lactam, log 10 transformed median intensity: lactam constrained library peptide; for Streptavidin Linear, log 10 transformed median intensity: linear library peptide. As to the method:
as §2

Chain of Streptavidin (P22629 25-183, species assumed): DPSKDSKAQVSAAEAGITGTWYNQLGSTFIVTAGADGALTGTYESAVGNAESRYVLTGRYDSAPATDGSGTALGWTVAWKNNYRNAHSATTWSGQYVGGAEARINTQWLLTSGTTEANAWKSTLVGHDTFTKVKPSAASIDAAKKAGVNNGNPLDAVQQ
T1 sequence (P15559 whole entry): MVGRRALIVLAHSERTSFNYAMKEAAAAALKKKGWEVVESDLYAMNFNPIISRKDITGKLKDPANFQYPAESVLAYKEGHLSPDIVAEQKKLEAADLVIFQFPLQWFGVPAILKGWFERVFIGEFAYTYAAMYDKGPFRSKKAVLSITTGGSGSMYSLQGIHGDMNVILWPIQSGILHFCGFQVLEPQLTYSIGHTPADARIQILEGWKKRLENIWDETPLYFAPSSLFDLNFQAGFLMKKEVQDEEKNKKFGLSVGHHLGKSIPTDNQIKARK

“TISYPLTP [library array peptide, tested lactam constrained and linear]”: in the assay with human diaphorase (NQO1), the “Diaphorase Lactam, log 10 transformed median intensity” value is 4.55 and the “Diaphorase Linear, log 10 transformed median intensity” value is recorded as 2.86. In assay [1], the “FNR Lactam, log 10 transformed median intensity” value was 2.56 and the “FNR Linear, log 10 transformed median intensity” value was 2.53. Also, in the assay on Ferredoxin, the “Ferredoxin Lactam, log 10 transformed median intensity” value is reported as 2.84 and the “Ferredoxin Linear, log 10 transformed median intensity” value worked out at 2.55. In assay [2], the “NISC Lactam, log 10 transformed median intensity” value is 3.49 and the “NISC Linear, log 10 transformed median intensity” value was found to be 2.59. In the assay with Streptavidin, the “Streptavidin Lactam, log 10 transformed median intensity” value was 2.54 and the “Streptavidin Linear, log 10 transformed median intensity” value stood at 2.53.
With “TYPIYGPA [library array peptide, tested lactam constrained and linear]”, in the assay with human diaphorase (NQO1), the “Diaphorase Lactam, log 10 transformed median intensity” value is on record as 4.46 and the “Diaphorase Linear, log 10 transformed median intensity” value is reported as 2.77. Moreover, in assay [1], the “FNR Lactam, log 10 transformed median intensity” value came to 2.59 and the “FNR Linear, log 10 transformed median intensity” value amounted to 2.53. Further, in the assay with Ferredoxin, the “Ferredoxin Lactam, log 10 transformed median intensity” value stood at 2.80 and the “Ferredoxin Linear, log 10 transformed median intensity” value turned out to be 2.55. In assay [2], the “NISC Lactam, log 10 transformed median intensity” value is 3.43 and the “NISC Linear, log 10 transformed median intensity” value came to 2.59. Also, in the assay with Streptavidin, the “Streptavidin Lactam, log 10 transformed median intensity” value turned out to be 2.54 and the “Streptavidin Linear, log 10 transformed median intensity” value came out at 2.52.
For “PPYTYANN [library array peptide, tested lactam constrained and linear]”, in the assay with human diaphorase (NQO1), the “Diaphorase Lactam, log 10 transformed median intensity” value is listed as 4.35 and the “Diaphorase Linear, log 10 transformed median intensity” value worked out at 4.00. In assay [1], the “FNR Lactam, log 10 transformed median intensity” value was found to be 2.54 and the “FNR Linear, log 10 transformed median intensity” value is reported as 2.53. For the same substance, in the assay with Ferredoxin, the “Ferredoxin Lactam, log 10 transformed median intensity” value was determined as 2.56 and the “Ferredoxin Linear, log 10 transformed median intensity” value was found to be 2.55. In assay [2], the “NISC Lactam, log 10 transformed median intensity” value amounted to 2.66 and the “NISC Linear, log 10 transformed median intensity” value worked out at 2.63. In addition, in the assay with Streptavidin, the “Streptavidin Lactam, log 10 transformed median intensity” value came to 2.53 and the “Streptavidin Linear, log 10 transformed median intensity” value came to 2.52.
“PFSGQPNS [library array peptide, tested lactam constrained and linear]”: in the assay with human diaphorase (NQO1), the “Diaphorase Lactam, log 10 transformed median intensity” value turned out to be 4.38 and the “Diaphorase Linear, log 10 transformed median intensity” value is 3.70. Besides, in assay [1], the “FNR Lactam, log 10 transformed median intensity” value is on record as 2.58 and the “FNR Linear, log 10 transformed median intensity” value was 2.58. In the assay with Ferredoxin, the “Ferredoxin Lactam, log 10 transformed median intensity” value was 2.59 and the “Ferredoxin Linear, log 10 transformed median intensity” value turned out to be 2.59. Besides, in assay [2], the “NISC Lactam, log 10 transformed median intensity” value is reported as 2.67 and the “NISC Linear, log 10 transformed median intensity” value was 2.63. In addition, in the assay with Streptavidin, the “Streptavidin Lactam, log 10 transformed median intensity” value turned out to be 2.57 and the “Streptavidin Linear, log 10 transformed median intensity” value was 2.56.
With “TTFFQPSY [library array peptide, tested lactam constrained and linear]”, in the assay with human diaphorase (NQO1), the “Diaphorase Lactam, log 10 transformed median intensity” value was 4.46 and the “Diaphorase Linear, log 10 transformed median intensity” value was 2.77. In assay [1], the “FNR Lactam, log 10 transformed median intensity” value was determined as 2.55 and the “FNR Linear, log 10 transformed median intensity” value came out at 2.54. In the assay with Ferredoxin, the “Ferredoxin Lactam, log 10 transformed median intensity” value amounted to 2.78 and the “Ferredoxin Linear, log 10 transformed median intensity” value was 2.54. In addition, in assay [2], the “NISC Lactam, log 10 transformed median intensity” value was 3.35 and the “NISC Linear, log 10 transformed median intensity” value is on record as 2.59. Besides, in the assay with Streptavidin, the “Streptavidin Lactam, log 10 transformed median intensity” value worked out at 2.52 and the “Streptavidin Linear, log 10 transformed median intensity” value was 2.54.
For “PNYSSAP [library array peptide, tested lactam constrained and linear]”, in the assay with human diaphorase (NQO1), the “Diaphorase Lactam, log 10 transformed median intensity” value was found to be 4.31 and the “Diaphorase Linear, log 10 transformed median intensity” value amounted to 3.91. Besides, in assay [1], the “FNR Lactam, log 10 transformed median intensity” value stood at 2.56 and the “FNR Linear, log 10 transformed median intensity” value was 2.54. In addition, in the assay on Ferredoxin, the “Ferredoxin Lactam, log 10 transformed median intensity” value is reported as 2.56 and the “Ferredoxin Linear, log 10 transformed median intensity” value is given as 2.55. In addition, in assay [2], the “NISC Lactam, log 10 transformed median intensity” value is reported as 2.63 and the “NISC Linear, log 10 transformed median intensity” value is 2.61. For the same substance, in the assay with Streptavidin, the “Streptavidin Lactam, log 10 transformed median intensity” value was found to be 2.52 and the “Streptavidin Linear, log 10 transformed median intensity” value turned out to be 2.52.
On to “VPSSYNLN [library array peptide, tested lactam constrained and linear]”, for which, in the assay with human diaphorase (NQO1), the “Diaphorase Lactam, log 10 transformed median intensity” value was 4.38 and the “Diaphorase Linear, log 10 transformed median intensity” value is 3.82. In addition, in assay [1], the “FNR Lactam, log 10 transformed median intensity” value amounted to 2.58 and the “FNR Linear, log 10 transformed median intensity” value is 2.57. Also, in the assay on Ferredoxin, the “Ferredoxin Lactam, log 10 transformed median intensity” value is on record as 2.6 and the “Ferredoxin Linear, log 10 transformed median intensity” value was found to be 2.58. Also, in assay [2], the “NISC Lactam, log 10 transformed median intensity” value was 2.68 and the “NISC Linear, log 10 transformed median intensity” value came to 2.65. Moreover, in the assay with Streptavidin, the “Streptavidin Lactam, log 10 transformed median intensity” value turned out to be 2.57 and the “Streptavidin Linear, log 10 transformed median intensity” value is 2.57.
For the substance “TSFFPGYN [library array peptide, tested lactam constrained and linear]”, in the assay with human diaphorase (NQO1), the “Diaphorase Lactam, log 10 transformed median intensity” value is 4.51 and the “Diaphorase Linear, log 10 transformed median intensity” value was 2.86. For the same substance, in assay [1], the “FNR Lactam, log 10 transformed median intensity” value came to 2.62 and the “FNR Linear, log 10 transformed median intensity” value was found to be 2.54. Also, in the assay on Ferredoxin, the “Ferredoxin Lactam, log 10 transformed median intensity” value stood at 2.71 and the “Ferredoxin Linear, log 10 transformed median intensity” value stood at 2.54. Moreover, in assay [2], the “NISC Lactam, log 10 transformed median intensity” value worked out at 3.47 and the “NISC Linear, log 10 transformed median intensity” value came out at 2.60. In the assay with Streptavidin, the “Streptavidin Lactam, log 10 transformed median intensity” value is given as 2.52 and the “Streptavidin Linear, log 10 transformed median intensity” value stood at 2.53.
As to “PPYPNQYQ [library array peptide, tested lactam constrained and linear]”, in the assay with human diaphorase (NQO1), the “Diaphorase Lactam, log 10 transformed median intensity” value was found to be 4.39 and the “Diaphorase Linear, log 10 transformed median intensity” value was 4.04. In assay [1], the “FNR Lactam, log 10 transformed median intensity” value is recorded as 2.55 and the “FNR Linear, log 10 transformed median intensity” value is on record as 2.56. Further, in the assay with Ferredoxin, the “Ferredoxin Lactam, log 10 transformed median intensity” value stood at 2.58 and the “Ferredoxin Linear, log 10 transformed median intensity” value was 2.58. In addition, in assay [2], the “NISC Lactam, log 10 transformed median intensity” value turned out to be 2.69 and the “NISC Linear, log 10 transformed median intensity” value is 2.69. In the assay with Streptavidin, the “Streptavidin Lactam, log 10 transformed median intensity” value turned out to be 2.53 and the “Streptavidin Linear, log 10 transformed median intensity” value was determined as 2.53.
“PYSNVFQG [library array peptide, tested lactam constrained and linear]”: in the assay with human diaphorase (NQO1), the “Diaphorase Lactam, log 10 transformed median intensity” value is on record as 4.43 and the “Diaphorase Linear, log 10 transformed median intensity” value was 3.88. In assay [1], the “FNR Lactam, log 10 transformed median intensity” value was 2.56 and the “FNR Linear, log 10 transformed median intensity” value turned out to be 2.56. Also, in the assay on Ferredoxin, the “Ferredoxin Lactam, log 10 transformed median intensity” value is reported as 2.59 and the “Ferredoxin Linear, log 10 transformed median intensity” value is 2.57. In addition, in assay [2], the “NISC Lactam, log 10 transformed median intensity” value was determined as 2.72 and the “NISC Linear, log 10 transformed median intensity” value is reported as 2.66. Further, in the assay with Streptavidin, the “Streptavidin Lactam, log 10 transformed median intensity” value worked out at 2.54 and the “Streptavidin Linear, log 10 transformed median intensity” value turned out to be 2.54.
